Common to all, as to assay type: cell-based, human
One assay relates to SNU-1. The assay is described as follows: cell viability of diffuse-type GC cell line SNU-1 after inhibitor treatment. The settings on record: 2.5 μM, 5 μM and 10 μM, triplicate. From the text: (§1) The potential tumor antigens (pTAs) expression and signaling pathways were validated in vitro. To validate the association of pTAs with the EMT-like subtype of gastric cancer, the pTAs expression at intestinal-type and diffuse-type GC cell lines were investigated by western blotting. The human GC cell line AGS was obtained from American Type Culture Collection (ATCC) CRL-1739™, and Hs746T was obtained from ATCC HTB-135™, and SNU-1 was obtained from ATCC CRL5971™. Hs746T and SNU-1 were diffuse-type GC cell lines; AGS was an intestinal type GC cell line.
(§2) Therefore, two inhibitors (SB431542 and GDC-0449 (Vismodegib)) were used to validate whether the TGF-β and hedgehog signaling pathways were activated in diffuse-type GC cell lines, respectively. The experiments were performed in triplicate.

The subject of the next assay is AGS. The assay is described as follows: cell viability of intestinal type GC cell line AGS after inhibitor treatment. To be noted: for cell viability (inhibiting effect): 2.5 μM, 5 μM and 10 μM, triplicate.
From the text: as §1, §2

Another assay deals with Hs746T. The assay is described as follows: cell viability of diffuse-type GC cell line Hs746T after inhibitor treatment. To be noted: 2.5 μM, 5 μM and 10 μM, triplicate.
From the text: as §1, §2

In the case of `CS(=O)(=O)c1ccc(C(=O)Nc2ccc(Cl)c(-c3ccccn3)c2)c(Cl)c1` [GDC-0449, Vismodegib], the cell viability entry with SNU-1 and in the assay on Hs746T was “significantly decreased” each time. Moreover, in the assay on AGS, the “cell viability (inhibiting effect)” value was “did not have significant effects of inhibiting”. For the same compound, in the assay on AGS (concentrations of 2.5 μM and 5 μM), the effect on proliferation entry was “effects of promoting proliferation”.

With `NC(=O)c1ccc(-c2nc(-c3ccc4c(c3)OCO4)c(-c3ccccn3)[nH]2)cc1` [SB431542], the cell viability entry in the assay on SNU-1 and with Hs746T was “significantly decreased” throughout. In the assay with AGS, the “cell viability (inhibiting effect)” value is “did not have significant effects of inhibiting”.

The record behind these values is US12637717B2, “Method for treating and predicting prognosis of gastric cancer patient by calculating RNA expression with logistic regression” (National Yang Ming Chiao Tung University, priority 2022, dated 2026).
